Columns and labels:
Assay type in all cases: functional
NCI-H460 [1] = experiment: Cytotoxicity against human NCI-H460 cells incubated for 48 hrs by sulforhodamine B assay; settings: NCI-H460, 48 h
CCRF-CEM = experiment: Cytotoxicity against human CCRF-CEM cells assessed as cell growth at 0.01 uM incubated for 48 hrs by sulforhodamine B assay relative to control; settings: read-out: Activity
HCC 2998 = experiment: Cytotoxicity against human HCC2998 cells incubated for 48 hrs by sulforhodamine B assay; settings: HCC 2998, 48 h
A549 = experiment: Cytotoxicity against human A549/ATCC cells incubated for 48 hrs by sulforhodamine B assay; settings: A549, 48 h
T47D = experiment: Cytotoxicity against human T47D cells assessed as cell growth at 1 uM incubated for 48 hrs by sulforhodamine B assay relative to control; settings: read-out: Activity
EKVX = experiment: Cytotoxicity against human EKVX cells assessed as cell growth at 10 uM incubated for 48 hrs by sulforhodamine B assay relative to control; settings: read-out: Activity
K562 = experiment: Cytotoxicity against human K562 cells assessed as cell growth at 0.01 uM incubated for 48 hrs by sulforhodamine B assay relative to control; settings: K562, 48 h, read-out: Activity
SF-268 = experiment: Cytotoxicity against human SF268 cells assessed as cell growth at 0.01 uM incubated for 48 hrs by sulforhodamine B assay relative to control; settings: SF-268, 48 h, read-out: Activity
HCT-116 = experiment: Cytotoxicity against human HCT116 cells assessed as cell growth at 10 uM incubated for 48 hrs by sulforhodamine B assay relative to control; settings: HCT-116, 48 h, read-out: Activity
NCI-H226 = experiment: Cytotoxicity against human NCI-H226 cells assessed as cell growth at 1 uM incubated for 48 hrs by sulforhodamine B assay relative to control; settings: NCI-H226, 48 h, read-out: Activity
HL-60(TB) [2] = experiment: Cytotoxicity against human HL-60(TB) cells assessed as cell growth at 100 uM incubated for 48 hrs by sulforhodamine B assay relative to control; settings: HL-60, 48 h, read-out: Activity
NCI/ADR-RES = experiment: Cytotoxicity against human NCI/ADR-RES cells assessed as cell growth at 0.01 uM incubated for 48 hrs by sulforhodamine B assay relative to control; settings: read-out: Activity
MCF7 = experiment: Cytotoxicity against human MCF7 cells assessed as cell growth at 10 uM incubated for 48 hrs by sulforhodamine B assay relative to control; settings: MCF7, 48 h, read-out: Activity
HOP-92 = experiment: Cytotoxicity against human HOP92 cells incubated for 48 hrs by sulforhodamine B assay; settings: HOP-92, 48 h
A498 = experiment: Cytotoxicity against human A498 cells assessed as cell growth at 10 uM incubated for 48 hrs by sulforhodamine B assay relative to control; settings: A498, 48 h, read-out: Activity
COLO 205 = experiment: Cytotoxicity against human COLO205 cells assessed as cell growth at 1 uM incubated for 48 hrs by sulforhodamine B assay relative to control; settings: COLO 205, 48 h, read-out: Activity
MDA-MB-468 = experiment: Cytotoxicity against human MDA-MB-468 cells assessed as cell growth at 1 uM incubated for 48 hrs by sulforhodamine B assay relative to control; settings: MDA-MB-468, 48 h, read-out: Activity
HCT-15 = experiment: Cytotoxicity against human HCT15 cells incubated for 48 hrs by sulforhodamine B assay; settings: HCT-15, 48 h
HT-29 = experiment: Cytotoxicity against human HT-29 cells assessed as cell growth at 0.1 uM incubated for 48 hrs by sulforhodamine B assay relative to control; settings: HT-29, 48 h, read-out: Activity
NCI-H460 [3] = experiment: Cytotoxicity against human NCI-H460 cells assessed as cell growth at 0.1 uM incubated for 48 hrs by sulforhodamine B assay relative to control; settings: NCI-H460, 48 h, read-out: Activity
Hs-578T = experiment: Cytotoxicity against human Hs 578T cells incubated for 48 hrs by sulforhodamine B assay
HL-60(TB) [4] = experiment: Cytotoxicity against human HL-60(TB) cells assessed as cell growth at 1 uM incubated for 48 hrs by sulforhodamine B assay relative to control; settings: HL-60, 48 h, read-out: Activity
SR = experiment: Cytotoxicity against human SR cells incubated for 48 hrs by sulforhodamine B assay
SW-620 [5] = experiment: Cytotoxicity against human SW620 cells assessed as cell growth at 1 uM incubated for 48 hrs by sulforhodamine B assay relative to control; settings: SW-620, 48 h, read-out: Activity
MDA-MB-435 = experiment: Cytotoxicity against human MDA-MB-435 cells assessed as cell growth at 100 uM incubated for 48 hrs by sulforhodamine B assay relative to control; settings: MDA-MB-435, 48 h, read-out: Activity
SW-620 [6] = experiment: Cytotoxicity against human SW620 cells incubated for 48 hrs by sulforhodamine B assay; settings: SW-620, 48 h
RPMI-8226 [7] = experiment: Cytotoxicity against human RPMI8226 cells assessed as cell growth at 1 uM incubated for 48 hrs by sulforhodamine B assay relative to control; settings: RPMI-8226, 48 h, read-out: Activity
NCI-H460 [8] = experiment: Cytotoxicity against human NCI-H460 cells assessed as cell growth at 0.01 uM incubated for 48 hrs by sulforhodamine B assay relative to control; settings: NCI-H460, 48 h, read-out: Activity
RPMI-8226 [9] = experiment: Cytotoxicity against human RPMI8226 cells assessed as cell growth at 0.1 uM incubated for 48 hrs by sulforhodamine B assay relative to control; settings: RPMI-8226, 48 h, read-out: Activity
[10] = read-out: LC50 (the source's name)
[11] = read-out: pLC50 (the source's name) (converted)

## COc1ccc(-c2nocc2-c2cc(OC)c(OC)c(OC)c2)cc1
NCI-H460 [1]; read-out: GI50
  GI50: 0.0536 µM
NCI-H460 [1]; [10]
  CC50: > 100 µM
NCI-H460 [1]; read-out: TGI
  TGI: 12.7 µM
NCI-H460 [1]; read-out: pGI50 (converted)
  GI50: 0.0537 µM
NCI-H460 [1]; [11]
  CC50: > 100 µM
NCI-H460 [1]; read-out: pTGI (converted)
  TGI: 12.6 µM
CCRF-CEM
  growth at 0.01 µM: 111%
HCC 2998; read-out: GI50
  GI50: 0.347 µM
HCC 2998; [10]
  CC50: > 100 µM
HCC 2998; read-out: TGI
  TGI: 22.2 µM
HCC 2998; read-out: pGI50 (converted)
  GI50: 0.347 µM
HCC 2998; [11]
  CC50: > 100 µM
HCC 2998; read-out: pTGI (converted)
  TGI: 22.4 µM
A549; read-out: GI50
  GI50: 0.0869 µM
A549; read-out: LC50
  LC50: > 100 µM
A549; read-out: TGI
  TGI: > 100 µM
A549; read-out: pGI50 (converted)
  GI50: 0.0871 µM
A549; read-out: pLC50 (converted)
  LC50: > 100 µM
A549; read-out: pTGI
  TGI: > 100 µM
T47D
  growth at 1 µM: 37%
EKVX
  growth at 10 µM: 32%
K562
  growth at 0.01 µM: 103%
SF-268
  growth at 0.01 µM: 95%
HCT-116
  growth at 10 µM: 6%
NCI-H226
  growth at 1 µM: 75%
HL-60(TB) [2]
  growth at 100 µM: -15%
NCI/ADR-RES
  growth at 0.01 µM: 92%
MCF7
  growth at 10 µM: 14%
HOP-92; read-out: GI50
  GI50: 0.678 µM
HOP-92; read-out: LC50
  LC50 (50% lethal concentration): > 100 µM
HOP-92; read-out: TGI
  TGI: 50.2 µM
HOP-92; read-out: pGI50 (converted)
  GI50: 0.676 µM
HOP-92; read-out: pLC50 (converted)
  LC50 (50% lethal concentration): > 100 µM
HOP-92; read-out: pTGI (converted)
  TGI: 50.1 µM
A498
  growth at 10 µM: -13%
COLO 205
  growth at 1 µM: 11%
MDA-MB-468
  growth at 1 µM: 3%
HCT-15; read-out: GI50
  GI50: 0.044 µM
HCT-15; read-out: LC50
  LC50: > 100 µM
HCT-15; read-out: TGI
  TGI: > 100 µM
HCT-15; read-out: pGI50 (converted)
  GI50: 0.0437 µM
HCT-15; read-out: pLC50 (converted)
  LC50: > 100 µM
HCT-15; read-out: pTGI
  TGI: > 100 µM
HT-29
  growth at 0.1 µM: 13%
NCI-H460 [3]
  growth at 0.1 µM: 30%
Hs-578T; read-out: GI50
  GI50: 0.396 µM
Hs-578T; [10]
  CC50: > 100 µM
Hs-578T; read-out: TGI
  TGI: > 100 µM
Hs-578T; read-out: pGI50 (converted)
  GI50: 0.398 µM
Hs-578T; [11]
  CC50: > 100 µM
Hs-578T; read-out: pTGI
  TGI: > 100 µM
HL-60(TB) [4]
  growth at 1 µM: -17%
SR; read-out: GI50
  GI50: 0.0717 µM
SR; [10]
  CC50: > 100 µM
SR; read-out: TGI
  TGI: 58.3 µM
SR; read-out: pGI50 (converted)
  GI50: 0.0724 µM
SR; [11]
  CC50: > 100 µM
SR; read-out: pTGI (converted)
  TGI: 58.9 µM
SW-620 [5]
  growth at 1 µM: 21%
MDA-MB-435
  growth at 100 µM: -9%
SW-620 [6]; read-out: GI50
  GI50: 0.0509 µM
SW-620 [6]; [10]
  CC50: > 100 µM
SW-620 [6]; read-out: TGI
  TGI: > 100 µM
SW-620 [6]; read-out: pGI50 (converted)
  GI50: 0.0513 µM
SW-620 [6]; [11]
  CC50: > 100 µM
SW-620 [6]; read-out: pTGI
  TGI: > 100 µM
RPMI-8226 [7]
  growth at 1 µM: 32%
NCI-H460 [8]
  growth at 0.01 µM: 105%
RPMI-8226 [9]
  growth at 0.1 µM: 82%

— ChEMBL document CHEMBL4145521, “Regioselective synthesis of 3,4-diaryl-5-unsubstituted isoxazoles, analogues of natural cytostatic combretastatin A4” (Eur J Med Chem, 2018)
